Reference: PMC6728138, “Quantitative mapping of protein-peptide affinity landscapes using spectrally encoded beads” (eLife, 2019)
Like-named read-outs stand apart in the source and are kept apart here. Ends that are not written are not given here.

Experiments:
[1] = system: NFAT-driven luciferase activity in HEK293T cells; assay: In vivo calcineurin activity assay (NFAT dual luciferase reporter); format: cell-based; settings: initial in vivo experiment, FK506 1 μM
Description: To test the degree to which in vitro MRBLE-pep affinities predict in vivo inhibition, we used a previously developed dual luciferase reporter assay to assess the activity of the NFAT2 transcription factor in HEK293T cells (Figure 6A) ([Grigoriu et al., 2013]). NFAT2 must be dephosphorylated by CN to accumulate in the nucleus, where it activates transcription of its target genes, and this interaction can be inhibited by peptides or small molecules that binds to CN. Reduction of NFAT2-dependent transcriptional activity upon expression of a competing PxIxIT peptide therefore reflects, quantitatively, the affinity of the inhibitor peptide for CN. Candidate PxIxIT inhibitors were co-expressed as GFP-fusion proteins within cells to enhance their stability and facilitate direct measurement of inhibitor concentrations.
PxIxIT peptides were fused to eGFP in pEGFPc1 vector. HEK293T cells were transfected with pEGFPc1 clones, pNFAT-Luc and CMV-Renilla in a 6-well plate format. 18 hr post transfection, 1μM FK506 or DMSO (vehicle) was added to the media as needed. […] 6 hr after pathway activation, cells were collected, washed in PBS and re-suspended in DMEM media. 80% of the cells were used to measure luciferase activity and renilla using the Dual-Glo assay system (Promega) with three technical replicates. The remaining cells were frozen and stored at −80°C. Cell lysates were prepared in RIPA buffer. 15–20 μg of lysate was analyzed by Western for expression of GFP. GFP signal was normalized to either actin or tubulin. Luciferase activity (normalized to renilla expression) was further normalized to eGFP expression. Data represent at least three experimental replicates.

CN = settings: ref Fruman et al., 1992; cited from earlier work
Description: Consistent with MRBLE-pep measurements, ...

calcineurin (CN) = target: T1, calcineurin (CN) (Homo sapiens, UniProt Q08209); assay: MRBLE-pep calcineurin binding assay (concentration-dependent)
T1 construct: human calcineurin A isoforms (truncated at residue 400); made in house; host or cells: E. coli BL21 (DE3)
T1 sequence (Q08209 1-400 limits assumed): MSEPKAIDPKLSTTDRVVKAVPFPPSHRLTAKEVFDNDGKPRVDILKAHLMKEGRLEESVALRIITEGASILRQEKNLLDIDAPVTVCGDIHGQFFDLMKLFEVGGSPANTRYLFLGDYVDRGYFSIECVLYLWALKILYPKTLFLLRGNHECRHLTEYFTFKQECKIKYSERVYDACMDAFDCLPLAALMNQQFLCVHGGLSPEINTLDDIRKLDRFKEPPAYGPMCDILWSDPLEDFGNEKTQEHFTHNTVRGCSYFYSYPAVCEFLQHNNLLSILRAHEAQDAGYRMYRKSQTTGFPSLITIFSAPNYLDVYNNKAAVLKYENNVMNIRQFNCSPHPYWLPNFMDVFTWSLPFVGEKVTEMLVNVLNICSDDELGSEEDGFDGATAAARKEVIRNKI
T1 sequence (P63098 whole entry partner, the tested form may be a part, canonical isoform): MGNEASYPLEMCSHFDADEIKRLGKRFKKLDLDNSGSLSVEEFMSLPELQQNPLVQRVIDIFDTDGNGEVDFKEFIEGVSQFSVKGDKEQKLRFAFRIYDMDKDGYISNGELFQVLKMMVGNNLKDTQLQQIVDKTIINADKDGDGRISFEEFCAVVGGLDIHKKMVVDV
Method: MRBLEs were prepared by transferring a 20 μL aliquot from a 600 μL suspension (∼3000–8000 beads depending on pellet size) to a 100 μL PCR strip (20 μL for each CN concentration), exchanging buffer via 3 cycles of iterative pelleting, decanting, and resuspension with 0.1% PBST containing 5% BSA, pH = 7.5 (100 μL), and then left mixing at ∼5 °C on a rotator in the same wash buffer overnight (∼14 hr). MRBLEs were then buffer exchanged once again with CN binding buffer (50 mM Tris pH = 7.5, 150 mM NaCl, 0.1% TWEEN 20) via three iterative cycles of pelleting, decanting, and resuspension.
After incubation, MRBLEs were pelleted, decanted, and washed once with 0.1% PBST (100 μL). After a final round of pelleting and decanting, 20 μL of 0.1% PBST was added and the beads were transferred to a quartz microscope slide for imaging.
The affinity ( Kd ) for each peptide in a MBRLE library was determined via a two-step nonlinear regression using a single-site binding model:(1) Ii=(Imax[CNtotal])/(Kd,i+[CNtotal]) where Ii is the median measured fluorescence intensity for each peptide, Kd,i is the dissociation constant for that interaction, [ CNtotal ] is total CN concentration, and Imax is a global variable representing the fluorescence intensity once MRBLE-pep beads are saturated. First, we determined the global saturation value ( Imax ), by globally fitting the top 80% highest-intensity MRBLE codes. Next, we globally fit the entire data set using this Imax value to yield an estimated absolute affinity ( Kd ) for all peptides in the library. […] Differences in binding affinity were calculated relative to a reference peptide using the standard equation:(2) ΔΔG=RTln(Kd,i/Kd,ref)
Next, we used this reference value and calculated differences in binding affinity ( ΔΔG ) to estimate absolute Kd values for each peptide within the calibration and full calibration libraries (Figure 2—source data 1, Figure 2—source data 2, Figure 5—source data 1, Figure 5—source data 2, Figure 5—source data 3, Figure 5—source data 4).

## C=CC[C@@H]1/C=C(\C)C[C@H](C)C[C@H](OC)[C@H]2O[C@@](O)(C(=O)C(=O)N3CCCC[C@H]3C(=O)O[C@H](/C(C)=C/[C@@H]3CC[C@@H](O)[C@H](OC)C3)[C@H](C)[C@@H](O)CC1=O)[C@H](C)C[C@@H]2OC [FK506]
[1]; replicate 1
  NFAT-driven luciferase activity, normalized to renilla and eGFP expression, relative to empty vector (Data): 0.09
[1]; replicate 2
  NFAT-driven luciferase activity, normalized, relative to empty vector (Data): 0.08616
[1]; replicate 3
  NFAT-driven luciferase activity, normalized, relative to empty vector (Data): 0.09188
CN
  IC50: ~0.5 nM

## HAVIVITGPH-NH2
Calcineurin (CN); bold value over the codes, read-out: kd, 'Triplicate high' library
  Kd: 1270 ± 130 nM

## HPSIVITGPH-NH2
Calcineurin (CN); kd, 'Triplicate high' library
  Kd: 880 ± 260 nM

## HPVIVVTGPH-NH2
Calcineurin (CN); apparent Kd, 'Triplicate low' (Figure 2C, measure not given)
  Kd: 2000 ± 400 nM
Calcineurin (CN); kd, 'Triplicate high' library
  Kd: 920 ± 250 nM
